Key:
[1] = tested on: protease produced by HUVEC that unmasks the cryptic site in type-IV collagen; experiment: Unmasking of HUIV26 cryptic site in collagen type-IV by HUVEC conditioned media; format: biochemical, human
Procedure: Microtiter plates were coated with extracellular matrix components, each at a concentration of 25 μg/ml. A). Mab HUIV26 was added at a concentration of 1 μg/ml, followed 1 hour later with goat anti-mouse peroxidase labeled IgG. Denatured collagen type-I and collagen type-IV were prepared by boiling for 15 minutes before coating the plates. All data were corrected for any non-specific binding of secondary antibody. Data bars represent the mean optical density (O.D.)±standard deviations from triplicate wells. B). Microtiter wells were coated with triple helical collagen type-IV at 25 μg/ml. Concentrated (20×) HUVEC conditioned media was added to the wells in the presence or absence of EDTA, aprotinin or both and allowed to incubate for 1, 6 and 24 hours. The plates were next washed, blocked and incubated with Mab HUIV26 or control antibody. All data were corrected for non-specific secondary antibody binding. Data bars represent the mean optical density (O.D.)±standard deviations from triplicate wells. The following abbreviations are used in the figure Coll-I, collagen type-I; Coll-IV, collagen type-IV.

[2] = tested on: MX-1 human breast carcinoma cells; experiment: Non-orthotopic MX-1 human breast tumor model; format: in vivo, SCID mice
Procedure: A study was performed in the staged subcutaneous (non-orthotopic) MX-1 breast tumor model. Female, 7 week-old, SCID mice were injected in the dorsal right flank with 0.75×10^7 MX-1 human breast carcinoma cells in 100 μl of PBS. Treatments were initiated when MX-1 tumors grew to a mean volume of 115 mm^3. The animals were randomly divided into 5 treatment groups, each having 6-7 animals per group. Animals were treated with D93 (i.v., 2×/week) and/or Taxol 100 μl volume (i.p. 2×/week), as outlined below. One control group of animals remained untreated, and another received PBS (vehicle) only. The animals were treated for 25 days.
Tumor size was measured every 7-20 days starting at first day-post randomization and continued until the end of the study. Measurements were recorded as (L×W^2)/2 where L is the length of the tumor or the largest diameter, and W is the width or shortest diameter. Animals were euthanized at the end of the study and final tumor measurements were recorded.

MDA-MB-435 tumor cells = experiment: Orthotopic MDA-MB-435 human breast tumor model in mice; format: in vivo, female nude mice
Procedure: The effect of antibodies D93 and H8 in an orthotopic human breast tumor model was evaluated. MDA-MB-435 tumor cells (0.4×10^6 cells/mouse) in 50 μl PBS were orthotopically implanted in the mammary fat pad of female nude mice (five to six weeks old). When tumors reached a mean volume of approximately 50-80 mm^3, mice were randomized (at least 10/group) and intravenous treatment with D93 and H8 at 1 μg (0.05 mg/kg) per dose, 10 μg (0.5 mg/kg), 100 μg (5 mg/kg) or 200 μg (10 mg/kg), or 100 μg control antibody DP28 in 100 μl PBS, or vehicle PBS 100 μl twice per week was initiated; in some studies, an untreated group was also evaluated.
Tumor sizes were measured every 7-20 days starting at the first day of treament and continued until day 50-80 post-treatment. Tumor length (L) and width (W) were measured with calipers and tumor volumes were calculated using the formula: (L×W^2)/2 where L was the length of the tumor or the largest diameter, and W was the width or shortest diameter. Animals were euthanized at the end of the study and final tumor measurements were recorded.
The effect of combination treatment of D93 with Taxol was evaluated for eight weeks in the orthotopic MDA-MB-435 human breast tumor model in mice. MDA-MB-435 tumor cells were implanted into female nude mice as described in Example 20. Animals were randomized into seven treatment groups (n=12-13/group) with mean tumor volume 78 mm^3. D93 was administered at 100 μg/dose (5 mg/kg) twice weekly. Taxol was administered intraperitoneally at 3 or 6 mg/kg q.w. A vehicle control group of animals received PBS twice weekly and HBSS once weekly. Another control group received DP28 control antibody, administered at 100 μg/dose, twice weekly. Treatments with D93 and Taxol, as well as controls, were initiated on the same day (Day 1).
Tumor sizes were measured every 7 days starting at the first day of treatment and continued until day 55 post-treatment. Measurements were recorded as (L×W^2)/2 where L is the length of the tumor or the largest diameter, and W is the width or shortest diameter. Animals were euthanized at the end of the study and the final measurements were recorded.
In a study similar to that described in Example 21, Taxol was administered intraperitoneally at 6 or 10 mg/kg q.w. Animals were treated for 51 days.

[3] = Table VI, D93 100 μg i.v. 2×/week and/or Taxol 6 mg/kg i.p. 2×/week
[4] = Table IV, D93 or DP-28 100 μg i.v. 2×/week and/or Taxol 6 mg/kg i.p. 1×/week
[5] = Table IV, Taxol 3 mg/kg i.p. 1×/week alone or with D93 100 μg i.v. 2×/week
[6] = Table V, D93 or DP-28 100 μg i.v. 2×/week and/or Taxol 6 mg/kg i.p. 1×/week
[7] = Table V, Taxol 10 mg/kg i.p. 1×/week alone or with D93 100 μg i.v. 2×/week

With `O=C(O)CN(CCN(CC(=O)O)CC(=O)O)CC(=O)O` [EDTA] as the compound, how does the “effect on the HUVEC protease that unmasks the cryptic site in type-IV collagen” value ([1]; FIG. 11B) read?
Its value is “inhibited”.

Which results are given for `CC(=O)O[C@H]1C(=O)[C@@]2(C)[C@H]([C@H](OC(=O)c3ccccc3)[C@]3(O)C[C@H](OC(=O)[C@H](O)[C@@H](NC(=O)c4ccccc4)c4ccccc4)C(C)=C1C3(C)C)[C@]1(OC(C)=O)CO[C@@H]1C[C@@H]2O` [Taxol, paclitaxel]?
effect on tumor growth ([2]; FIG. 39, D93 100 μg and/or Taxol 6 mg/kg, 25 days): inhibit tumor growth; Tumor volume, Day 1 [2, 3]: 119 mm^3; Tumor volume, Day 5 [2, 3]: 224.19 mm^3; Tumor volume, Day 12 [2, 3]: 602 mm^3; Tumor volume, Day 19 [2, 3]: 761.89 mm^3; Tumor volume, Day 26 [2, 3]: 1196 mm^3; inhibition of tumor volume compared to DP28 (MDA-MB-435 tumor cells; Example 21, D93 100 μg/dose twice per week and/or Taxol 6 mg/kg q.w.): 42%; inhibition of tumor growth compared to DP-28 (MDA-MB-435 tumor cells; Example 21, Taxol 3 mg/kg q.w. alone or plus D93 100 μg/dose twice per week): 6%; Tumor volume, Day 1 (MDA-MB-435 tumor cells; [4]): 78 mm^3; Tumor volume, Day 8 (MDA-MB-435 tumor cells; [4]): 203 mm^3; Tumor volume, Day 27 (MDA-MB-435 tumor cells; [4]): 315 mm^3; Tumor volume, Day 34 (MDA-MB-435 tumor cells; [4]): 399 mm^3; Tumor volume, Day 41 (MDA-MB-435 tumor cells; [4]): 530 mm^3; Tumor volume, Day 48 (MDA-MB-435 tumor cells; [4]): 688 mm^3; Tumor volume, Day 54 (MDA-MB-435 tumor cells; [4]): 793 mm^3; Tumor volume, Day 55 (MDA-MB-435 tumor cells; [4]): 787 mm^3; Tumor volume, Day 1 (MDA-MB-435 tumor cells; [5]): 78 mm^3; Tumor volume, Day 8 (MDA-MB-435 tumor cells; [5]): 257 mm^3; Tumor volume, Day 27 (MDA-MB-435 tumor cells; [5]): 361 mm^3; Tumor volume, Day 34 (MDA-MB-435 tumor cells; [5]): 476 mm^3; Tumor volume, Day 41 (MDA-MB-435 tumor cells; [5]): 604 mm^3; Tumor volume, Day 48 (MDA-MB-435 tumor cells; [5]): 815 mm^3; Tumor volume, Day 54 (MDA-MB-435 tumor cells; [5]): 1034 mm^3; Tumor volume, Day 55 (MDA-MB-435 tumor cells; [5]): 1275 mm^3; Tumor volume, Day 1 (MDA-MB-435 tumor cells; [6]): 58.55 mm^3; Tumor volume, Day 21 (MDA-MB-435 tumor cells; [6]): 210.6 mm^3; Tumor volume, Day 32 (MDA-MB-435 tumor cells; [6]): 392.04 mm^3; Tumor volume, Day 39 (MDA-MB-435 tumor cells; [6]): 559.9 mm^3; Tumor volume, Day 45 (MDA-MB-435 tumor cells; [6]): 771 mm^3; Tumor volume, Day 51 (MDA-MB-435 tumor cells; [6]): 866 mm^3; Tumor volume, Day 1 (MDA-MB-435 tumor cells; [7]): 58.6 mm^3; Tumor volume, Day 21 (MDA-MB-435 tumor cells; [7]): 196.5 mm^3; Tumor volume, Day 32 (MDA-MB-435 tumor cells; [7]): 361.56 mm^3; Tumor volume, Day 39 (MDA-MB-435 tumor cells; [7]): 487.05 mm^3; Tumor volume, Day 45 (MDA-MB-435 tumor cells; [7]): 672 mm^3; Tumor volume, Day 51 (MDA-MB-435 tumor cells; [7]): 820 mm^3

aprotinin was tested. Which “block of Mab HUIV26 reactivity observed in the absence of protease inhibitor” value ([1]; 6 hour time point) did it give?
Its value is 40%.

What about the “block of Mab HUIV26 reactivity observed in the absence of protease inhibitor” value ([1]; 24 hour time point) of the same compound?
The value was 70%.

And the “effect on unmasking of cryptic site(s) in type-IV collagen” value ([1]; one hour of incubation with HUVEC conditioned media)?
Its value is “little effect”.

Source: US20050281821A1, “Method and composition for angiogenesis inhibition” (priority 1999, published 2005)
